Data set [1] is described as follows: stability of sertraline hydrochloride polymorphic forms. Type of data set: physicochemical. To be noted: statement in words.
Data set [2] can be described thus: dissolution / solubility of sertraline hydrochloride polymorphic forms. It counts as physicochemical. Particulars: comparison of polymorphic forms; statement in words.
For data set [3] the following is noted: claimed in the cited patent; cited from earlier work.
The conditions of data set [4]: claimed in the cited patent; cited from earlier work. This is another data set of the same source.

Structures can show the parent of a compound that is named as a salt.

Take `CN[C@H]1CC[C@@H](c2ccc(Cl)c(Cl)c2)c2ccccc21.Cl` [Form I]: the “stability of the polymorph (comparison of forms)” value in data set [1] (compared with form II) is given as “more stable”. Moreover, the dissolution properties entry in data set [2] is “poor dissolution properties”.

Take `CN[C@H]1CC[C@@H](c2ccc(Cl)c(Cl)c2)c2ccccc21.Cl` [Polymorphic form T1]: in data set [3], the “stability as claimed in U.S. Pat. No. 5,734,083” value is given as “acceptable stable”. For the same compound, in data set [2], the dissolution properties entry was “dissolves better than forms I and II”. For the same compound, the “solubility in aqueous fluids as claimed in U.S. Pat. No. 5,734,083” value in data set [4] is “enhanced solubility”.

As for `CNC1CCC(c2ccc(Cl)c(Cl)c2)c2ccccc21` (stereo not drawn) [(1S-cis)-4-(3,4-dichlorophenyl)-1,2,3,4-tetrahydro-N-methyl-1-naphtalenamine hydrochloride], in data set [1] (form II prepared by the method described, no test described), the “stability of the polymorph” value is “stable”.

Source of the values: patent US7067700B2, “Process for preparing sertraline hydrochloride polymorphic form II” (Fermion Oy, priority 2001, dated 2006).
